Measurements as given in patent publication US20250276959A1, “SOLID STATE FORMS OF ZAVEGEPANT HYDROCHLORIDE AND PROCESS FOR PREPARATION THEREOF” (TEVA CZECH INDUSTRIES S.R.O., priority 2022, published 2025).

Assay: Storage stability of the solid state form
Type: physicochemical
Description: Crystalline Form C2 of Zavegepant hydrochloride may have one or more advantageous properties, as discussed herein above. For example, Form C2 is stable for a period of at least for 6 months at temperature of about 25° C. and a relative humidity (“RH”) of 60% RH, and at a temperature of about 40° C. and 75% RH.

Cc1cc(C[C@@H](NC(=O)N2CCC(c3cc4ccccc4[nH]c3=O)CC2)C(=O)N2CCN(C3CCN(C)CC3)CC2)cc2cn[nH]c12 [Form C2, (R)N-(3-(7-methyl-1H-indazol-5-yl)-1-(4-(1-methylpiperidin-4-yl)piperazin-1-yl)-1-oxopropan-2-yl)-4-(2-oxo-1,2-dihydroquinolin-3-yl)piperidine-1-carboxamide]
period for which the form is stable (temperature of about 25° C., 60% RH): ≥ 6 months
period for which the form is stable (temperature of about 40° C., 75% RH): ≥ 6 months
